Format in all cases: biochemical
Experiment [1] has as its target T1, VEGFR3 (Homo sapiens, UniProt P35916).
T1 construct: purchased Millpore Corp. (Millipore) 14-681
Briefly: VEGFR3 enzyme activity assay (Caliper LC3000 mobility shift). The settings on record: 400 uM ATP (Km), 0.4 nM VEGFR3, 90 minutes at RT. The procedure: (§1) Enzyme activity for VEGFR3, VEGFR2 and Flt3 were measured on the Caliper Life Sciences LC3000 (Hopkinton, Mass.). The system utilizes the principle of electroosmotic flow to separate and quantify the amount of phosphorylated-Fluorescein-labelled-peptide (product) from unphosphorylated-Fluorescein-labelled peptide (substrate). The amount of product and substrate are determined by measuring the peak heights from the electropherogram. The enzyme activity is then quantified by dividing the amount of product by the sum of the product and substrate. The inhibitory activity of a sample is measured by comparing the enzyme activity in the presence of sample versus the enzyme activity in the presence of dimethylsufoxide (DMSO). Specific assay conditions for each enzyme are listed below:
VEGFR3 assay: The peptide substrate at 1 uM (FITC-KKKKEEIYFFF-CONH2; synthesized at Tufts University, Boston, Mass.) was incubated with 400 uM of ATP, corresponding to the Michaelis-Menten (Km) constant of the enzyme/substrate reaction, and 0.4 nM of VEGFR3 (Millpore Corp., Cat. No. 14-681) for 90 minutes at RT. After 90 minutes, the reaction was stopped by the addition of 10 mM EDTA. The substrate and product were then separated on the LC3000.

Experiment [2] has as its target T2, VEGFR2 (Homo sapiens, UniProt P35968).
T2 construct: purchased BPS Bioscience; San Diego, Calif; 40301
Briefly: VEGFR2 enzyme activity assay (Caliper LC3000 mobility shift). The following applies: 160 uM ATP (Km), 1 nM VEGFR2, 90 minutes at RT. The method, then:
as §1
VEGFR2 assay: The peptide substrate at 1 uM (5-FL-EEPLYWSFPAKKK-CONH2; synthesized at Tufts University, Boston, Mass.) was incubated with 160 uM of ATP, corresponding to the Michaelis-Menten (Km) constant of the enzyme/substrate reaction, and 1 nM of VEGFR2 (BPS Bioscience; San Diego, Calif.; Cat. No. 40301) for 90 minutes at RT. After 90 minutes, the reaction was stopped by the addition of 10 mM EDTA. The substrate and product were then separated on the LC3000.

The target in experiment [3] is T3, Flt3 (Homo sapiens, UniProt P36888).
T3 construct: purchased BPS Bioscience; San Diego, Calif; 40225
T3 sequence (P36888 27-993): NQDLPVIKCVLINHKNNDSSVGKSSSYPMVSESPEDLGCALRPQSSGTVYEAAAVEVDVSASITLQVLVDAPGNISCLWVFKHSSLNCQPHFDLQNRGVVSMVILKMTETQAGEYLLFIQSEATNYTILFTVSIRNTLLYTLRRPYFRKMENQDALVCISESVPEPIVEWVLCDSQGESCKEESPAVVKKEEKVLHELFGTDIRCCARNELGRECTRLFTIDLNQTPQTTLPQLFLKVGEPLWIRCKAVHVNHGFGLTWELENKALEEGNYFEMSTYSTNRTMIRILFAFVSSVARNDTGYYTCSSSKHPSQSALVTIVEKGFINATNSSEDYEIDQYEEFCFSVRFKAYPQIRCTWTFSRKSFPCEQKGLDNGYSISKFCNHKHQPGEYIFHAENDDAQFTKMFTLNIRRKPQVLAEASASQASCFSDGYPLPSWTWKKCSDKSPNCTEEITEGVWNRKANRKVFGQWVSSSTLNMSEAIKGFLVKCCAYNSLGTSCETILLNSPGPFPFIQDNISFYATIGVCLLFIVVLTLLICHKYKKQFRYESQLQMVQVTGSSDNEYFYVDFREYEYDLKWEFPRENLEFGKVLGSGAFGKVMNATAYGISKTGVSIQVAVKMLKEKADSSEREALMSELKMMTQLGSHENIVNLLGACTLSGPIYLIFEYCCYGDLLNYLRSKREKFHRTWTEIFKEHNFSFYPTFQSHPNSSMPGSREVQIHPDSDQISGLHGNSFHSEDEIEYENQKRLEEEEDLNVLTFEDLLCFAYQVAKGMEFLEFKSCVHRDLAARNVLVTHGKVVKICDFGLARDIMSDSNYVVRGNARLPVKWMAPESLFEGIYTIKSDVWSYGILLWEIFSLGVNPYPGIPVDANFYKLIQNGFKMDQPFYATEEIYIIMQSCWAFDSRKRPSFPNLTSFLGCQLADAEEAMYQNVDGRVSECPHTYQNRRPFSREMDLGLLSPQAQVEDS
Kind of experiment: Flt3 enzyme activity assay (Caliper LC3000 mobility shift). The settings on record: 350 uM ATP (Km), 3 nM Flt3, 90 minutes at RT. The procedure: as §1
Flt3 assay: The peptide substrate at 1 uM (FITC-AHA-UEAIYAAPFAKKK-CONH2; synthesized at Tufts University, Boston, Mass.) was incubated with 350 uM of ATP, corresponding to the Michaelis-Menten (Km) constant of the enzyme/substrate reaction, and 3 nM of Flt3 (BPS Bioscience; San Diego, Calif.; Cat. No. 40225) for 90 minutes at RT. After 90 minutes, the reaction was stopped by the addition of 10 mM EDTA. The substrate and product were then separated on the LC3000.

The results in this text go back to patent US20110282056A1, “PROTEIN KINASE INHIBITORS AND USE THEREOF” (priority 2008, published 2011).

A value given as a limit tells only on which side of the number the result lay.

T1 sequence (P35916 25-1363): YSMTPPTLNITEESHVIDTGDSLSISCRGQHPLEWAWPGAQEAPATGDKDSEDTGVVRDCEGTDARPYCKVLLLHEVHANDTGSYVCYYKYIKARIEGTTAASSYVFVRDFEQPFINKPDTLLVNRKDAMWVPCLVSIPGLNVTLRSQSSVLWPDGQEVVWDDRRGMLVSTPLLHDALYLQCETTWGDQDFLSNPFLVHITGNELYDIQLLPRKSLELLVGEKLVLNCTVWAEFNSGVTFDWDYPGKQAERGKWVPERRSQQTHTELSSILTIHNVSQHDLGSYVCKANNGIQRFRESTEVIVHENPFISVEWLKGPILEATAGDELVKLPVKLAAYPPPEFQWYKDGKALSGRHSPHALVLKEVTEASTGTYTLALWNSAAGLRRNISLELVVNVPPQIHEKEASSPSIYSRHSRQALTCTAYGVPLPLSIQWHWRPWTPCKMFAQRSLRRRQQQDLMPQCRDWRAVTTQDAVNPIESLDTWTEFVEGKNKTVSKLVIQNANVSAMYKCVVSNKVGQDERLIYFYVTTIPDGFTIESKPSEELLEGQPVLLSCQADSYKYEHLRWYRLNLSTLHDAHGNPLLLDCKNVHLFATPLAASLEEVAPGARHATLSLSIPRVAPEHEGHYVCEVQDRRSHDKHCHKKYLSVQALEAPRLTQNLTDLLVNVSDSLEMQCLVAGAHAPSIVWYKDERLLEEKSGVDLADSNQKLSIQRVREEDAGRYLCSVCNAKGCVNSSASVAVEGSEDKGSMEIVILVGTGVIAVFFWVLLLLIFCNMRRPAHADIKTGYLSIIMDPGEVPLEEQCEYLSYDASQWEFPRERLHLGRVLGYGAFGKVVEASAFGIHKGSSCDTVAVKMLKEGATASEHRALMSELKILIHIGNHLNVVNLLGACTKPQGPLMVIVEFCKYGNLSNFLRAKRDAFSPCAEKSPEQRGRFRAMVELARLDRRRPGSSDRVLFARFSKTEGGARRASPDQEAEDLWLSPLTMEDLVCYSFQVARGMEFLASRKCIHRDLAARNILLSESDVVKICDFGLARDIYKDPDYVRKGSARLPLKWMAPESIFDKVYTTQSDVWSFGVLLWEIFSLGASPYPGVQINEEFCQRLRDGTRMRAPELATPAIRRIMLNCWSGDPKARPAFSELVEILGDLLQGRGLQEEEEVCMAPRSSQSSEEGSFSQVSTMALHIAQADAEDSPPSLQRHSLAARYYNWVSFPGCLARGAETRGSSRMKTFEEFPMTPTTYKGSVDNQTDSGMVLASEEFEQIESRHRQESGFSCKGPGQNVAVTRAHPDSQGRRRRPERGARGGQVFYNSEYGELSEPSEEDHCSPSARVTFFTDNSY
T2 sequence (P35968 20-1356): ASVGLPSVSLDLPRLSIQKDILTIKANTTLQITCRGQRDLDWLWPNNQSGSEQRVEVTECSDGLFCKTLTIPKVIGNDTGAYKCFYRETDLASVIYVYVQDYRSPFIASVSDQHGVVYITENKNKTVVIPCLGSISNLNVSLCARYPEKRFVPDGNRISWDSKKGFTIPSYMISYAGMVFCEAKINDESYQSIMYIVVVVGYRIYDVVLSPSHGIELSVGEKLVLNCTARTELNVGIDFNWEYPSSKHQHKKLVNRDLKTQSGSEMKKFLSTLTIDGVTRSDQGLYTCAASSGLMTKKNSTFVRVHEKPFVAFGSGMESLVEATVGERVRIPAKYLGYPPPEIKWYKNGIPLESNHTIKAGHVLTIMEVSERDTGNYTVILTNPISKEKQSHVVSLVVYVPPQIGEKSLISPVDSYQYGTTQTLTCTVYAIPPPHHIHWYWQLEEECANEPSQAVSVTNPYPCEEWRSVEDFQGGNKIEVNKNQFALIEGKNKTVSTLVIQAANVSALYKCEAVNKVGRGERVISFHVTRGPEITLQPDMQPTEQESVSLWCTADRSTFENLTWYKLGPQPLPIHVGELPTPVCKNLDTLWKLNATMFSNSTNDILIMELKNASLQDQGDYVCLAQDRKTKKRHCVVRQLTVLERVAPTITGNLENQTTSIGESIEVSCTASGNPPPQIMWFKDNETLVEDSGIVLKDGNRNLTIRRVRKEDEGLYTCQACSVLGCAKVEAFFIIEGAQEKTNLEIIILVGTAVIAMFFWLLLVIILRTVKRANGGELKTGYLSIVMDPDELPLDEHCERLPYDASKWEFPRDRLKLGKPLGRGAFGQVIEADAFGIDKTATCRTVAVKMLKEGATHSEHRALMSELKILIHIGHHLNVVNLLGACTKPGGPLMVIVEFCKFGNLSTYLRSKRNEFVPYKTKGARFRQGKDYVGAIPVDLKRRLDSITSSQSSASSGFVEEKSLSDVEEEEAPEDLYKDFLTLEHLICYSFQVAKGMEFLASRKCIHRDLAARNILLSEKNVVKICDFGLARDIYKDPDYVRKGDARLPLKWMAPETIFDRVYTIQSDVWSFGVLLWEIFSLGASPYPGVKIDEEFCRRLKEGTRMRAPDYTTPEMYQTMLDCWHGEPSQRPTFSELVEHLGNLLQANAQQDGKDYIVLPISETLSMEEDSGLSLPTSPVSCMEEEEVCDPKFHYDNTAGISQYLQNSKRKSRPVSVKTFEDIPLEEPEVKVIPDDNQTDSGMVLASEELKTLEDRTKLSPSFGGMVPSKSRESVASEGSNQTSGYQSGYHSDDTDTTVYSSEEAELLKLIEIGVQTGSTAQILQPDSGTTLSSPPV

Consider `CS(=O)(=O)c1ccc(C#Cc2ccnc3[nH]ccc23)cc1` [compound 81], for which the IC50 in experiment [1], in experiment [2] and in experiment [3] was above 1000 nM each time.
Take `Cc1cc(C#Cc2ccnc3[nH]ccc23)ccc1C#N` [compound 94]: the half-maximal inhibitory concentration (IC50) in experiment [1], in experiment [2] and in experiment [3] was above 1000 nM throughout.
As to `CC(=O)Nc1ccccc1C#Cc1ccnc2[nH]ccc12` [compound 45], the IC50 (commonly the point on the concentration scale where inhibition reaches its midpoint) in experiment [1] is 100 to 1000 nM; in experiment [2], above 1000 nM; in experiment [3], above 1000 nM.
For `CC(=O)Nc1ccc(C#Cc2ccnc3[nH]ccc23)cc1` [compound 67], the half-maximal inhibitory concentration (IC50) in experiment [1] was 100 to 1000 nM; in experiment [2], above 1000 nM; in experiment [3], above 1000 nM.
As to `C(#Cc1ccnc2[nH]ccc12)c1cccc(Nc2ccccc2)c1` [compound 104], the IC50 in experiment [1], in experiment [2] and in experiment [3] was above 1000 nM in each case.
For `CC(=O)c1cccc(C#Cc2ccnc3[nH]ccc23)c1` [compound 50], the IC50 in experiment [1] is 100 to 1000 nM; in experiment [2], above 1000 nM; in experiment [3], 100 to 1000 nM.
Regarding `COc1cccc(C#Cc2ccnc3[nH]ccc23)c1` [compound 51], the IC50 in experiment [1] is 100 to 1000 nM; in experiment [2], above 1000 nM; in experiment [3], 100 to 1000 nM.
As for `O=C(c1ccc(C#Cc2ccnc3[nH]ccc23)cc1)C1CC1` [compound 134], the IC50 in experiment [1], in experiment [2] and in experiment [3] was above 1000 nM throughout.
For `FC(F)Oc1ccc(C#Cc2ccnc3[nH]ccc23)cc1` [compound 107], the IC50 in experiment [1], in experiment [2] and in experiment [3] was above 1000 nM throughout.
Take `Cc1ccccc1C#Cc1ccnc2[nH]ccc12` [compound 69]: the IC50 in experiment [1] was 100 to 1000 nM; in experiment [2], above 1000 nM; in experiment [3] it was above 1000 nM.
For `C(#Cc1ccnc2[nH]ccc12)c1cccnc1` [compound 82], the IC50 in experiment [1], in experiment [2] and in experiment [3] was above 1000 nM in each case.
As for `O=C(NCc1ccccc1C#Cc1ccnc2[nH]ccc12)Nc1ccccc1` [compound 113], the IC50 in experiment [1], in experiment [2] and in experiment [3] was above 1000 nM in each case.
As to `Nc1ccccc1C#Cc1cnc2[nH]ccc2c1` [compound 137], the IC50 in experiment [1], in experiment [2] and in experiment [3] was above 1000 nM each time.
For `Fc1cccc(C#Cc2ccnc3[nH]ccc23)c1` [compound 59], the IC50 is 100 to 1000 nM in experiment [1], above 1000 nM in experiment [2] and above 1000 nM in experiment [3].
As for `CN(C)c1ccc(C#Cc2ccnc3[nH]ccc23)cc1` [compound 124], the half-maximal inhibitory concentration (IC50) in experiment [1], in experiment [2] and in experiment [3] was above 1000 nM throughout.
As to `C=Cc1cccc(C#Cc2ccnc3[nH]ccc23)c1` [compound 65], the IC50 in experiment [1] is 100 to 1000 nM; in experiment [2] it was above 1000 nM; in experiment [3], above 1000 nM.
Consider `C(#Cc1ccnc2[nH]ccc12)c1ccc(-c2nnc(-c3ccccc3)o2)cc1` [compound 131], for which the half-maximal inhibitory concentration (IC50) in experiment [1], in experiment [2] and in experiment [3] was above 1000 nM throughout.
Regarding `N#Cc1cncc(C#Cc2ccnc3[nH]ccc23)c1` [compound 91], the IC50 in experiment [1], in experiment [2] and in experiment [3] was above 1000 nM in each case.
`C(#Cc1ccnc2[nH]ccc12)c1ccoc1` [compound 44]: the half-inhibitory concentration (IC50) was 100 to 1000 nM in experiment [1], above 1000 nM in experiment [2] and above 1000 nM in experiment [3].
On to `FC(F)(F)c1ccc(C#Cc2ccnc3[nH]ccc23)cc1` [compound 135], for which the IC50 in experiment [1], in experiment [2] and in experiment [3] was above 1000 nM throughout.
On to `C(#Cc1ccnc2[nH]ccc12)c1ccccc1-c1ccccc1` [compound 127], for which the IC50 in experiment [1], in experiment [2] and in experiment [3] was above 1000 nM throughout.
As to `C(#Cc1ccnc2[nH]ccc12)c1ncccn1` [compound 93], the IC50 in experiment [1], in experiment [2] and in experiment [3] was above 1000 nM each time.
On to `C#Cc1ncnc2[nH]ccc12` [compound 111], for which the concentration for half-maximal inhibition (IC50) in experiment [1], in experiment [2] and in experiment [3] was above 1000 nM each time.
As for `C(#Cc1ccnc2[nH]ccc12)c1ccc(-c2cnco2)cc1` [compound 119], the IC50 in experiment [1], in experiment [2] and in experiment [3] was above 1000 nM in each case.
With `COc1cc(C#Cc2ccnc3[nH]ccc23)cc(OC)c1` [compound 74], the half-inhibitory concentration (IC50) in experiment [1], in experiment [2] and in experiment [3] was above 1000 nM in each case.
Turning to `FC(F)(F)Oc1ccccc1C#Cc1ccnc2[nH]ccc12` [compound 78], the IC50 in experiment [1], in experiment [2] and in experiment [3] was above 1000 nM in each case.
On to `COc1ccc(C#Cc2ccnc3[nH]ccc23)cc1` [compound 89], for which the IC50 in experiment [1], in experiment [2] and in experiment [3] was above 1000 nM each time.
In the case of `C(#Cc1ccnc2[nH]ccc12)c1ccc(-c2csnn2)cc1` [compound 136], the IC50 in experiment [1], in experiment [2] and in experiment [3] was above 1000 nM throughout.
For the molecule `C(#Cc1ccnc2[nH]ccc12)c1cccc(-c2ccccc2)c1` [compound 98], the half-inhibitory concentration (IC50) in experiment [1], in experiment [2] and in experiment [3] was above 1000 nM in each case.
As to `Nc1cc(C#Cc2ccccc2CNC(=O)C(F)(F)F)ccn1` [compound 129], the IC50 in experiment [1], in experiment [2] and in experiment [3] was above 1000 nM in each case.
Turning to `O=C(Cc1ccccc1C#Cc1ccnc2[nH]ccc12)N1CCC(F)(F)CC1` [compound 121], the IC50 in experiment [1], in experiment [2] and in experiment [3] was above 1000 nM throughout.
As to `C(#Cc1ccnc2[nH]ccc12)c1cccc(-c2cc[nH]n2)c1` [compound 53], the half-inhibitory concentration (IC50) in experiment [1] is 100 to 1000 nM; in experiment [2], above 1000 nM; in experiment [3] it was above 1000 nM.
Turning to `COC(=O)c1cccc(C#Cc2ccnc3[nH]ccc23)n1` [compound 106], the half-maximal inhibitory concentration (IC50) in experiment [1], in experiment [2] and in experiment [3] was above 1000 nM throughout.
Take `CC(=O)c1ccc(C#Cc2ccnc3[nH]ccc23)nc1` [compound 115]: the IC50 in experiment [1], in experiment [2] and in experiment [3] was above 1000 nM each time.
For `CN(C)c1ccc(C#Cc2ncnc3sc4c(c23)CCCC4)cc1` [compound 125], the IC50 in experiment [1], in experiment [2] and in experiment [3] was above 1000 nM throughout.
Consider `COC(=O)c1cccc(C#Cc2ccnc3[nH]ccc23)c1` [compound 55], for which the IC50 in experiment [1] was 100 to 1000 nM; in experiment [2], above 1000 nM; in experiment [3] it was above 1000 nM.
